Here are results for one compound from patent US20210179655A1, “Prodrugs of a JAK Inhibitor Compound for Treatment of Gastrointestinal Inflammatory Disease” (THERAVANCE BIOPHARMA R&D IP, LLC, priority 2015, published 2021).

Molecules are shown by their SMILES. A value given as a limit tells only on which side of the number the result lay.

Series [1] addresses JAK1 (Homo sapiens, UniProt P23458). Description: Biochemical JAK kinase assay (LanthaScreen) JAK1. (Time-resolved FRET reads energy transfer from a long-lived donor to a nearby acceptor.)
Experimental: A panel of four LanthaScreen JAK biochemical assays (JAK1, 2, 3 and Tyk2) were carried in a common kinase reaction buffer (50 mM HEPES, pH 7.5, 0.01% Brij-35, 10 mM MgCl2, and 1 mM EGTA). Recombinant GST-tagged JAK enzymes and a GFP-tagged STAT1 peptide substrate were obtained from Life Technologies.
Serially diluted compounds were pre-incubated with each of the four JAK enzymes and the substrate in white 384-well microplates (Corning) at ambient temperature for 1 h. ATP was subsequently added to initiate the kinase reactions in 10 μL total volume, with 1% DMSO. […] The JAK1 kinase activity was also tested at 1 mM ATP concentration. […] The plates were allowed to incubate at ambient temperature for 1 h before being read on the EnVision reader (Perkin Elmer).
For dose-response analysis, percent inhibition data were plotted vs. compound concentrations, and IC50 values were determined from a 4-parameter robust fit model with the Prism software (GraphPad Software). Results were expressed as pIC50 (negative logarithm of IC50) and subsequently converted to pKi (negative logarithm of dissociation constant, Ki) using the Cheng-Prusoff equation.
Series [2] in a line: Metabolic stability in homogenates from rat upper and lower intestinal content. Format: in vitro ADME. To be noted: 37° C.; for half-life: 10 μM; for half-life at 10 μM: rat, diluted 1:10 in DPBS. As to the method: The conversion of compound 1 to tofacitinib was evaluated in the intestinal lumen content prepared from the various GI segments isolated from freshly sacrificed rats. Each segment of content from the duodenum, jejunum, ileum, and colon was diluted 1:10 in Dulbecco's phosphate buffer saline (DPBS) solution. […] The incubation was conducted in a water bath at 37° C. and time points were taken at 0, 5, 10, 20, 40 and 60 min. The total incubation volume was 400 μL and 40 μL aliquots were taken at each time point and diluted into 160 μL of 97% ACN+3% formic acid+an internal standard. The samples were centrifuged at 2200 rcf for 10 min and 50 μL of supernatant was diluted into 150 μL of water+1% formic acid.

The target in series [3] is β-glucuronidase (Escherichia coli, UniProt P05804). Description: Metabolic stability of compound 1 in β-glucuronidase from E. coli. Format: in vitro ADME. To be noted: purified β-glucuronidase from E. coli, β-glucuronidase 100 Units/mL, 37° C. The method, then: The incubations were quenched at timepoints 0, 1, 2, 3, 5, 10, 15, 30, 60, and 90 min by addition of 100 μL of ACN. Samples were diluted with water+1% formic acid (4×) and analyzed using a Thermo Q-Exactive™ LC-MS system.

The test system of series [4] is splenic NK cells. Description: Immunosuppression effects in mouse splenic natural killer (NK) cells. In kind it is in vivo. As to the method: Adult male Balb/C mice (12-14 weeks of age) from Harlan were used for the study. […] Spleens were harvested 30 min or 3 h post last dose and crushed immediately for cell subtype staining. Prior to fixation, fluorophore-labelled antibodies for CD19 (FITC; B cells), CD3e (PE; pan T cells) and DX5 (APC; NK cells) were incubated with splenocyte samples from each animal to allow for simultaneous, multiple subtype % analysis on the flow cytometer. The number of total spleen cells for each animal was measured by Scepter™ 2.0 Handheld Automated Cell Counter.
The absolute number of lymphocyte subtype population (e.g., splenic B, T and NK cells) was calculated from the percentage of each subtype times total spleen cells for each animal. A one way ANOVA, with Dunnett's post hoc test, was used to compare the splenic lymphocytes number of the vehicle and test compound groups. The a level was set at p<0.05. Data were presented as the mean SEM for each group.

Series [5] can be described thus: Rat colon fecal homogenate stability. To be noted: male, rat colon fecal homogenate supernatant, 10 μM, read-out: T½ (In vitro colonic stability, loss of pro-drug). In kind it is in vitro ADME. The method, then: The objective of this study was to determine the stability of the present compounds in rat colon fecal homogenate, i.e. the half-life for decomposition in the presence of the β-glucuronidase in rat colon feces.
Following sacrifice of a naïve male rat (˜300 g) by cardiac puncture exsanguination, the colon was ligated and removed to an anaerobic chamber (AS-580, Anaerobe Systems). The fecal content was removed within the chamber and was diluted 1:10 (1 gram to 9 mL phosphate buffer) and then homogenized using a handheld Omni Tissue Master. The fecal homogenate was centrifuged at 2000 g for 10 min to remove bulk and the supernatant was removed and used for the incubations.
Test articles and a positive control (sulfasalazine) were prepared as 10 mM DMSO stocks. The final substrate concentration of each assay was 10 μM (30 μM for compound 5). Reactions were started by adding a 5 μL aliquot of diluted test compound stock into 300 μL of rat fecal supernatant-homogenate. At 0, 15, 30, 60, 90, and 120 min post reaction initiation, a 50 μL aliquot was removed into 200 μL of acetonitrile with 3% formic acid and an internal standard molecule. All samples were centrifuged at 2000 g for 10 min after which 50 μL of supernatant was diluted into 150 μL of water for analysis on an LC-MS system. In vitro half-lives for loss of pro-drug were calculated as follows: (T½=0.693/elimination rate constant).

JAK1, sequence (P23458 whole entry): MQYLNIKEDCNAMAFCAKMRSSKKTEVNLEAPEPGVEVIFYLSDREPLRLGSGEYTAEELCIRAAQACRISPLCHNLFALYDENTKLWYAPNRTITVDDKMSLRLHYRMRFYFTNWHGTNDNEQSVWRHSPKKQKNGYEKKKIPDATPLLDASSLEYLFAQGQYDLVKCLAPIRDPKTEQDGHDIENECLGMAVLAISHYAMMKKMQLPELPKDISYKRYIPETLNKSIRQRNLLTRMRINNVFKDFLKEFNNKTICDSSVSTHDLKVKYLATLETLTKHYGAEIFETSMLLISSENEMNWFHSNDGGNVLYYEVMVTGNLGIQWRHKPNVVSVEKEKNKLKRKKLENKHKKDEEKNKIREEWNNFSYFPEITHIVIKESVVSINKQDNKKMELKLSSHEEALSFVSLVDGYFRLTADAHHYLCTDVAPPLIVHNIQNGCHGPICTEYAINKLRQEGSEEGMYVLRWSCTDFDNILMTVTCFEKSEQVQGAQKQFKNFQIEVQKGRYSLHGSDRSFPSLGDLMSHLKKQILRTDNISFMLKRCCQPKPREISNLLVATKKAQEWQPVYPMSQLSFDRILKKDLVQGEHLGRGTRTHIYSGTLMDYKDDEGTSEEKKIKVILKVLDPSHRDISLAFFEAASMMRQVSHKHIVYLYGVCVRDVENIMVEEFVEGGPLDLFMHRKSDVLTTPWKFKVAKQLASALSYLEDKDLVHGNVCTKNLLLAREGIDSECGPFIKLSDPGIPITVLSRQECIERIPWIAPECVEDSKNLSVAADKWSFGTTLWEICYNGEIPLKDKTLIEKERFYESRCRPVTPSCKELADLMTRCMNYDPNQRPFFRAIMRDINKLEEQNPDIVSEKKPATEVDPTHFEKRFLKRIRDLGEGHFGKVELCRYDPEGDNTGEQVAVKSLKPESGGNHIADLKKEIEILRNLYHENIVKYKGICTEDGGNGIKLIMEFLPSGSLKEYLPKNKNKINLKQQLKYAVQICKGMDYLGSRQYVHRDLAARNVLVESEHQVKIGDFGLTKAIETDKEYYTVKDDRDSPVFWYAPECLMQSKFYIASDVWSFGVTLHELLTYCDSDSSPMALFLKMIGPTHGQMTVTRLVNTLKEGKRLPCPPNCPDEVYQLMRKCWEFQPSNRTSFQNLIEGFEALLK
β-glucuronidase, sequence (P05804 whole entry): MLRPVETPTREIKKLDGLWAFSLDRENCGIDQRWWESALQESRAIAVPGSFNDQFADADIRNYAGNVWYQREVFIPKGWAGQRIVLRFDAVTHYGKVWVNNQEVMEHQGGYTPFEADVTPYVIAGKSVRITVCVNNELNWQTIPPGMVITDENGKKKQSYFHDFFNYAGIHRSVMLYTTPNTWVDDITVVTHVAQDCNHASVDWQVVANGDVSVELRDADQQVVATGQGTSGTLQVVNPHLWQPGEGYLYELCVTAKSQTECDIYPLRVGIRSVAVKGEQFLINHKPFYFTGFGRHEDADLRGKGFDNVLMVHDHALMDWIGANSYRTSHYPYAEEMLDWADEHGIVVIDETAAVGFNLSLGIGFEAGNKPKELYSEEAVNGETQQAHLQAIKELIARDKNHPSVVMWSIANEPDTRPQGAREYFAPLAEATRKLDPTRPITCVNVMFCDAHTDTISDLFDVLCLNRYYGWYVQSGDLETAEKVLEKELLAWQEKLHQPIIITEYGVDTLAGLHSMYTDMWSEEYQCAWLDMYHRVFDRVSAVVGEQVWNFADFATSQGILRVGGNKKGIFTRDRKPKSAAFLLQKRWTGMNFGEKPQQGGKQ

Regarding `C[C@@H]1CCN(C(=O)CC#N)C[C@@H]1N(C)c1ncnc2c1ccn2C(=O)N(C)CCN(C)C(=O)OCc1ccc(O[C@@H]2O[C@H](C(=O)O)[C@@H](O)[C@H](O)[C@H]2O)c([N+](=O)[O-])c1` [Compound 1, (2S,3S,4S,5R,6S)-6-(4-((((2-(4-(((3R,4R)-1-(2-cyanoacetyl)-4-methylpiperidin-3-yl)(methyl)amino)-N-methyl-7H-pyrrolo[2,3-d]pyrimidine-7-carboxamido)ethyl)(methyl)carbamoyl)oxy)methyl)-2-nitrophenoxy)-3,4,5-trihydroxytetrahydro-2H-pyran-2-carboxylic acid], in series [1], the IC50 was more than 10 µM. In addition, in series [1], the Ki is more than 0.501 µM. The half-life in series [2] (Colon content) is less than 5 min; in series [2] (Duodenum content), more than 60 min; in series [2] (Jejunum content), more than 60 min. The half-life at 10 μM was less than 5 min in series [2] (colon lumen content, Colon content); more than 60 min in series [2] (duodenum lumen content, Duodenum content); 34 min in series [2] (ileum lumen content, Ileum content); more than 60 min in series [2] (jejunum lumen content, Jejunum content); 1 to 15 min in series [5]. The same compound yielded a half-life at 30 μM in series [3] of less than 5 min. Moreover, in series [4] (PO (BID) doses up to 10 mg/kg (maximum dose tested), three days, naïve mice), the “splenic NK cell counts” value is given as “unaffected”. Besides, the “Systemic functional activity (splenic NK depletion)” value in series [4] (mouse, oral dosing for three days) is listed as more than 10 mg/kg.

For orientation: IC50 means the concentration that gives 50% inhibition. A low value points to greater potency in that assay. Broadly, the Ki is a dissociation constant, usually derived from enzyme kinetics or from competition with a known ligand.
